Laboratory results from the C3SDB collision cross section collection.

conditions: [M+H-H2O]+; instrument: TW; calibrated with polyalanine and drug standards

Compound	collision cross section (N2)
CNCC(O)c1ccc(O)cc1 (stereo not drawn) [OXEDRINE]	132 Å²

same assay, conditions: [M+H]+; instrument: TW; calibrated with polyalanine and drug standards

Compound	collision cross section (N2)
COc1ccc2oc3ccccc3c(=O)c2c1 [2-METHOXYXANTHONE]	142.4 Å²
C[C@@H]1O[C@@H](O[C@H]2CC[C@]3(C=O)[C@H]4CC[C@]5(C)[C@@H](C6=CC(=O)OC6)CC[C@]5(O)[C@@H]4CC[C@]3(O)C2)[C@H](O)[C@H](O)[C@H]1O [CONVALLATOXIN]	238.1 Å²
CN1CC[C@@]2(C)c3cc(O)ccc3N(C)[C@@H]12 [ESEROLINE]	149.1 Å²
CC(C)(C)NCC(O)COc1cccc2c1C[C@H](O)[C@H](O)C2 (stereo partly drawn) [NADOLOL]	171.8 Å²
O=c1cc(-c2ccccc2)oc2cc(O)ccc12 [7-HYDROXYFLAVONE]	148.9 Å²
CC[C@H]1CN2CCc3cc(OC)c(OC)cc3[C@@H]2C[C@@H]1C[C@H]1NCCc2cc(OC)c(OC)cc21 [EMETINE]	219.6 Å²
NC(N)=Nc1nc(CSCC/C(N)=N/S(N)(=O)=O)cs1 [FAMOTIDINE]	167.2 Å²
Cc1c(C(N)=O)cc([N+](=O)[O-])cc1[N+](=O)[O-] [DINITOLMIDE]	143.7 Å²
CC(=O)OCC(=O)[C@@]1(O)CCC2C3CCC4=CC(=O)C=C[C@]4(C)[C@@]3(F)[C@@H](O)C[C@@]21C (stereo partly drawn) [ISOFLUPREDNONE ACETATE]	194.7 Å²
C=C(C)c1cc2cc(C(C)=O)c(O)cc2o1 [EUPARIN]	143.2 Å²
Nc1ccc([As](=O)(O)O)cc1 [ARSANILIC ACID]	133.2 Å²
Cn1c([N+](=O)[O-])cnc1COC(N)=O [RONIDAZOLE]	136.9 Å²
COc1ccc(-c2coc3c(O)c(O)c(OC)cc3c2=O)cc1 [DIPTERYXIN]	168.5 Å²
CN1C(=O)CC[C@H]1c1cccnc1 [COTININE]	141.1 Å²
C[C@H]1[C@H]2CC[C@H]3[C@@H]4CC=C5C[C@@H](N(C)C)CC[C@]5(C)[C@H]4CC[C@]23CN1C [CONESSINE]	195.4 Å²
OCC(O)CN1CCN(c2ccccc2)CC1 (stereo not drawn) [DROPROPIZINE]	155.7 Å²
Nc1nc(N)c2nc(CNc3ccc(C(=O)N[C@@H](CCC(=O)O)C(=O)O)cc3)cnc2n1 [AMINOPTERIN]	204.4 Å²
COc1ccc(-c2cc(=O)c3ccccc3o2)cc1 [4'-METHOXYFLAVONE]	152.1 Å²
CN1[C@@H]2CC[C@H]1CC(OC(=O)[C@H](CO)c1ccccc1)C2 (stereo partly drawn) [HYOSCYAMINE]	169.7 Å²

Compound	collision cross section (N2)
C[C@@H]1O[C@@H](O[C@H]2C[C@@H](O)[C@]3(CO)[C@H]4[C@H](O)C[C@]5(C)[C@@H](C6=CC(=O)OC6)CC[C@]5(O)[C@@H]4CC[C@]3(O)C2)[C@H](O)[C@H](O)[C@H]1O [OUABAIN]	234 Å²
COc1cc(OC)c2c(c1)OC(c1ccccc1)CC2=O (stereo not drawn) [ALPINETIN METHYL ETHER]	162.8 Å²
C=C(C)C1Cc2c(ccc3c(=O)c4c(oc23)COc2cc(OC)c(OC)cc2-4)O1 (stereo not drawn) [DEHYDROROTENONE]	192.3 Å²
CCN(CC)Cc1cc(Nc2ccnc3cc(Cl)ccc23)ccc1O [AMODIAQUINE]	191.9 Å²
Nc1ccc(S(=O)(=O)Nc2ccnn2-c2ccccc2)cc1 [SULFAPHENAZOLE]	170 Å²
COc1c(O)cc2c(-c3ccccc3)cc(=O)oc2c1OC [KUHLMANNIN]	165.6 Å²
C=CC[C@]1(O)CC[C@H]2[C@@H]3CCC4=CC(=O)CCC4=C3C=C[C@@]21C [ALTRENOGEST]	177 Å²
CC(C)CCCC1(C)C=Cc2c(O)c3c(c(CCC(C)C)c2O1)OC12C(CC4CC1C(C)(C)OC2(CCC(C)C(=O)O)C4O)C3=O (stereo not drawn) [DECAHYDROGAMBOGIC ACID]	251 Å²
CC1(C)C[C@@H]2C(=O)CC[C@H]3O[C@]3(C)CC[C@H]21 [KOBUSONE]	146.3 Å²
C=C[C@H](C1=CC(=O)C=CC1=O)c1ccccc1 [S-DALBERGIONE]	143.6 Å²
CC[C@H]1OC(=O)C[C@@H](O)[C@H](C)[C@@H](O[C@@H]2O[C@H](C)[C@@H](O[C@H]3C[C@@](C)(O)[C@@H](O)[C@H](C)O3)[C@H](N(C)C)[C@H]2O)[C@@H](CC=O)C[C@@H](C)C(=O)/C=C/C(C)=C/[C@@H]1CO[C@@H]1O[C@H](C)[C@@H](O)[C@@H](OC)[C@H]1OC [TYLOSIN]	307.8 Å²
COc1ccc(-c2coc3c(OC)c(OC)cc(O)c3c2=O)cc1 [ISOTECTORIGENIN, 7-METHYL ETHER]	171.9 Å²
CN1C[C@H](CNC(=O)OCc2ccccc2)C[C@@H]2c3cccc4c3c(cn4C)C[C@H]21 [METERGOLINE]	197.6 Å²
CCCCOC(=O)c1ccc(N)cc1 [BUTAMBEN]	159.4 Å²
Cc1[nH]c2ccccc2c1CN(C)C [2-METHYL GRAMINE]	140.6 Å²
O=C(N/N=C/c1ccc([N+](=O)[O-])o1)c1ccc(O)cc1 [NIFUROXAZIDE]	154.4 Å²
CC(CC(C(N)=O)(c1ccccc1)c1ccccc1)N(C)C (stereo not drawn) [AMINOPENTAMIDE]	169.6 Å²
O=C(O)c1ccccc1 [BENZOIC ACID]	122.2 Å²
CC(=O)O[C@@H]1C[C@@]2(C)C(CC[C@@H]2C(C)=O)C2CCC3=CC(=O)CC[C@]3(C)C21 (stereo partly drawn) [11a-ACETOXYPROGESTERONE]	190.6 Å²

Other lines, results leading:

collision cross section (N2)	Compound
177.8 Å²	CC(=O)[C@H]1CC[C@H]2[C@@H]3CCC4=CC(=O)CC[C@]4(C)[C@H]3CC[C@]12C [PROGESTERONE]
152.6 Å²	Cn1c(=O)c2c(ncn2CC(O)CO)n(C)c1=O (stereo not drawn) [DYPHYLLINE]
196.8 Å²	Nc1nc(=O)c2nc(CNc3ccc(C(=O)N[C@@H](CCC(=O)O)C(=O)O)cc3)cnc2[nH]1 [FOLIC ACID]
186.8 Å²	C[C@]12C=CC(=O)C=C1CC[C@H]1[C@@H]3C[C@@H](O)[C@](O)(C(=O)CO)[C@@]3(C)C[C@H](O)[C@@]12F [TRIAMCINOLONE]
245.7 Å²	CC(C)=CCCC1(C)C=Cc2c(O)c3c(c(CC=C(C)C)c2O1)OC12C(=CCCC1C(C)(C)O[C@@]2(C/C=C(\C)C(=O)O)C(=O)O)C3=O (stereo partly drawn) [GARCINOLIC ACID]
165.4 Å²	COc1c(C)c2c(c(O)c1C/C=C(\C)CCC(=O)O)C(=O)OC2 [MYCOPHENOLIC ACID]
220.7 Å²	Cc1nc2sccn2c(=O)c1CCN1CCC(=C(c2ccc(F)cc2)c2ccc(F)cc2)CC1 [RITANSERIN]
258.1 Å²	CC[C@H]1OC(=O)[C@H](C)[C@@H](O[C@H]2C[C@@](C)(OC)[C@@H](O)[C@H](C)O2)[C@H](C)[C@@H](O[C@@H]2O[C@H](C)C[C@H](N(C)C)[C@H]2O)[C@](C)(O)C[C@@H](C)C(=O)[C@H](C)[C@@H](O)[C@]1(C)O [ERYTHROMYCIN]
160.5 Å²	COc1cc(OC)c2c(=O)cc(-c3ccccc3)oc2c1 [CHRYSIN DIMETHYL ETHER]
152.7 Å²	CCOc1ccc2nc(S(N)(=O)=O)sc2c1 [ETHOXZOLAMIDE]
156.5 Å²	O=c1c(-c2ccc(O)cc2)coc2cc(O)cc(O)c12 [GENISTEIN]
159.4 Å²	CC(=O)Oc1ccccc1C(=O)Oc1ccccc1C(=O)O [DIPLOSALSALATE]
127.7 Å²	NCCc1ccc(O)c(O)c1 [3-HYDROXYTYRAMINE]
129.1 Å²	Cc1cc(O)cc(O)c1C(=O)O [ORSELLINIC ACID]
140.2 Å²	COc1cc(OC)c(C(C)=O)c(O)c1C [METHYLXANTHOXYLIN]
199.7 Å²	CC1(C)O[C@@H]2C[C@H]3[C@@H]4C[C@H](F)C5=CC(=O)C=C[C@]5(C)[C@@]4(F)[C@@H](O)C[C@]3(C)[C@]2(C(=O)CO)O1 [FLUOCINOLONE ACETONIDE]
137.7 Å²	c1ccc2[nH]c(-c3cscn3)nc2c1 [THIABENDAZOLE]
187.9 Å²	C[C@@H]1C[C@H]2[C@@H]3CCC4=CC(=O)C=C[C@]4(C)[C@@]3(F)[C@@H](O)C[C@]2(C)[C@@]1(O)C(=O)CO [DEXAMETHASONE]
174.5 Å²	CNCCC(Oc1ccc(C(F)(F)F)cc1)c1ccccc1 (stereo not drawn) [FLUOXETINE]
153.6 Å²	C[C@]12CC[C@@H]3c4ccc(O)cc4CC[C@H]3[C@@H]1C[C@H](O)[C@@H]2O [EPIESTRIOL]
134.4 Å²	Cc1cc(=O)oc2cc(O)cc(O)c12 [5,7-DIHYDROXY-4-METHYLCOUMARIN]
192.6 Å²	NC(=O)C1(N2CCCCC2)CCN(CCCC(=O)c2ccc(F)cc2)CC1 [PIPAMPERONE]
134.7 Å²	O=c1cccc2ccc(O)c(O)c2c1O [3,4,6-trihydroxy-5H-benzo[a]cyclohepten-5-one]
147.3 Å²	O=c1cc(-c2ccccc2)oc2cccc(O)c12 [PRIMULETIN]
200.5 Å²	CC1=C(/C=C/C(C)=C/C=C/C(C)=C/C(=O)Nc2ccc(O)cc2)C(C)(C)CCC1 [FENRETINIDE]

same assay, conditions: [M+Na]+; instrument: TW; calibrated with polyalanine and drug standards

Compound	collision cross section (N2)
OC[C@H]1O[C@@](CO)(O[C@H]2O[C@H](CO)[C@@H](O)[C@H](O)[C@H]2O)[C@@H](O[C@H]2O[C@H](CO)[C@@H](O)[C@H](O)[C@H]2O)[C@@H]1O [MELEZITOSE]	199.2 Å²
C/C=C(/C(=C/C)c1ccc(O)cc1)c1ccc(O)cc1 [DIENESTROL]	153.2 Å²
CCCCCCCCCCCCCCCC(=O)OCC(O)CO (stereo not drawn) [1-MONOPALMITIN]	195.9 Å²
CC(C)(C#N)O[C@@H]1O[C@H](CO)[C@@H](O)[C@H](O)[C@H]1O [LINAMARIN]	157.3 Å²
